Experimental data: US11607417B2, “Uses of celastrol in preventing and/or treating cholestatic liver disease and liver fibrosis” (KUNMING INSTITUTE OF BOTANY, THE CHINESE ACADEMY OF SCIENCES, priority 2017, dated 2023)

How the values were obtained:
[1] = system: TAA-induced cholestatic liver injury in FXR knockout mice; test: Effect of FXR on celastrol activity in TAA model (Example 6); assay type: in vivo, FXR knockout mice (C57BL/6J as background)
Source text: The same experimental method of Example 2 was used, wherein the experimental animals were FXR knockout mice (C57BL/6J as background), and the FXR knockout mice were presented by Frank J. Gonzalez, a researcher of the Cancer Institute of National Institutes of Health, USA.

[2] = system: ANIT-induced cholestatic liver injury in FXR knockout mice; test: Effect of FXR on celastrol activity in ANIT model (Example 5); assay type: in vivo, FXR knockout mice (C57BL/6J as background)
Source text: The same experimental method of Example 1 was used, wherein the experimental animals were FXR knockout mice (C57BL/6J as background), and the FXR knockout mice were presented by Frank J. Gonzalez, a researcher of the Cancer Institute of National Institutes of Health, USA.

[3] = system: TAA-induced liver fibrosis; test: TAA-induced liver fibrosis in mice (Example 7); assay type: in vivo, C57BL/6 mice; settings: three times per week from second week, TAA 6 weeks
Protocol: A total of 30 male C57BL/6 mice were divided into three groups: blank group (n=10); TAA liver fibrosis group (n=10); treatment group (n=10).
Celastrol was dissolved in a solvent to obtain a celastrol solution at a concentration of 2 mg/mL, wherein the solvent consisted of 1% DMSO, 2% Tween 80, and 97% water (v:v:v); for intragastrical administration, the dosage of celastrol was 10 mg/kg/time, three times per week, and the administration was absent in the first week. TAA was dissolved in 0.9% NaCl solution to prepare a NaCl solution of TAA at a concentration of […], and the dosage for intraperitoneal administration was 100 mg/kg/time in the first week and 160 mg/kg/time in the second to sixth week, three times per week.
The model group and the treatment group were administrated with TAA three times per week, and administered every other day. The dosage of TAA was 100 mg/kg each time during the first week. From the second week onwards, the dosage of TAA administered to the model group and the treatment group was changed to 160 mg/kg each time. The blank group was given an equal dosage of NaCl solution.
The treatment group was administrated with celastrol from the second week, in which celastrol at a dosage of 10 mg/kg was administered 1 hour after administration with TAA. The blank group and the model group were administrated with an equal dosage of solvent (1% DMSO, 2% Tween 80, and 97% water (v: v: v)).
Six weeks later, mice were sacrificed by CO2 anesthesia, and mouse plasma samples and liver samples were collected. The eyeballs of the mice were taken for blood collection. The plasma samples were placed on ice for 1-2 hours, centrifuged at 4000 g for 5 minutes at 4° C., and the supernatants of plasma samples were taken to determine the plasma biochemical indicators, the levels of ALT, AST, and ALP.
(§1) Part of the collected mouse liver tissue was fixed overnight in formalin, and tissue sections were stained with hematoxylin and eosin (H&E).

[4] = system: TAA-induced cholestatic liver injury under SIRT1 inhibition; test: Effect of SIRT1 inhibition (EX527) on celastrol activity in TAA model (Example 4); assay type: in vivo, C57BL/6 mice
Protocol: A total of 24 male C57BL/6 mice were divided into four groups: blank group (n=6);
model group (n=6); treatment group (n=6); EX527 group (n=6).
Celastrol was dissolved in a solvent to obtain a solution of celastrol at a concentration of 2 mg/mL, wherein the solvent consisted of 1% DMSO, 2% Tween, and 97% water (v:v:v). For intragastrical administration, the dosage of celastrol was 10 mg/kg·d. TAA was dissolved in 0.9% NaCl solution to prepare a NaCl solution of TAA at a concentration of 60 mg/mL, and the dosage of TAA for intraperitoneal administration was 300 mg/kg. EX527 was dissolved in corn oil to prepare a corn oil solution of EX527 at a concentration of 2 mg/mL, and the dosage of EX527 for intraperitoneal administration was 10 mg/kg. d.
The EX527 group was simultaneously administered with the celastrol solution and the EX527 corn oil solution for 4 consecutive days. The treatment group was administrated with the celastrol solution and an equal dosage of corn oil for 4 consecutive days. At the same time, the blank group and the model group were administrated with equal dosages of solvent (1% DMSO, 2% Tween 80 and 97% water (v:v:v)) and corn oil, and the solvent was administrated for 4 consecutive days.
On the 4th day, the establishment of TAA model was performed. 1 Hour after administration, the mice in the model group, the treatment group and the EX527 group were intraperitoneally injected with TAA at a dosage of 300 mg/kg to induce cholestatic liver injury. 24 Hours after administration with TAA, the mice were sacrificed by CO2 anesthesia, and plasma samples and liver samples were collected. The eyeballs of the mice were taken for blood collection. The plasma samples were placed on ice for 1-2 hours, centrifuged at 4000 g for 5 minutes at 4° C., and the supernatants of plasma samples were taken to determine the plasma biochemical indicators, the levels of ALT, AST, and ALP.
At the same time, plasma samples were prepared: 10 μL of plasma sample was mixed with 190 μL of 67% acetonitrile (containing 5 μM internal standard chlorpropamide), centrifuged at 18000 g for 20 minutes at 4° C., and the supernatant was taken for sample injection. The liquid chromatography conditions were as follows: the volume of injection was 5 μL; the temperature of column was 45° C.; the flow rate of mobile phase was 0.3 mL/min; the gradient elution was that acetonitrile concentration changed from 2% to 98% during 16 minutes of operation, wherein the mobile phase (water/acetonitrile solution) contained 0.01% formic acid. The elution procedure was as follows: during 0-12th minute, the acetonitrile concentration changed from 2% to 98% at a constant rate; during 12-14th minute, the acetonitrile concentration was maintained at 98%; during 14-14.1th minute, the acetonitrile concentration changed from 98% to 2%; during 14.1-16th minute, the acetonitrile concentration was maintained at 2%. Mass spectrometry conditions were as follows: the temperature of dry gas was 350° C., the pressure of nebulizer was 35 psi, and the voltage of capillary was 3.5 kV.
as §1

[5] = method of Example 1, ANIT model, FIG. 5A
[6] = celastrol 10 mg/kg/time, P<0.05, FIG. 7D
[7] = treatment group: celastrol 10 mg/kg·d, TAA model, P<0.05, FIG. 4E

For `CC1=C(O)C(=O)C=C2C1=CC=C1[C@@]2(C)CC[C@@]2(C)[C@@H]3C[C@](C)(C(=O)O)CC[C@]3(C)CC[C@]12C` [celastrol, Celastrol], the “Levels of bile acids in plasma vs model group” value ([1]; co-MCA, DCA, TCA, THDCA/TUDCA, TCDCA, method of Example 2, FIG. 6E) was “no significant decrease”, the “H&E staining of liver tissue” value ([1]; method of Example 2, TAA model, FIG. 6C) was “a severe necrosis of liver cells also occurred” and the “AST level in plasma vs model group” value ([1]; method of Example 2, TAA model, FIG. 6D) was “no significant decrease”. The “Levels of bile acids in plasma vs ANIT model group” value ([2]; CA, DCA, TβMCA/TαMCA, TCA, THDCA/TUDCA, method of Example 1, FIG. 5B) was “no significant decrease”, the “ALP level in plasma vs model group” value [2, 5] was “no significant decrease” and the “ALT level in plasma vs model group” value [2, 5] was “no significant decrease”. For the same compound, the “H&E staining: liver tissue damage and liver morphology” value ([3]; celastrol 10 mg/kg/time intragastric, n=10, FIG. 7C) was “reduced and the liver morphology was also significantly recovered”, the “ALT level in plasma vs model group” value [3, 6] was “significantly lower” and the “AST level in plasma vs model group” value [3, 6] was “significantly lower”. The “H&E staining: area of necrosis of liver cells” value ([4]; treatment group: celastrol 10 mg/kg·d intragastric + corn oil, TAA model, FIG. 4C) was “significantly reduced”, the “ALT level in plasma vs model group” value [4, 7] was “lower” and the “AST level in plasma vs model group” value [4, 7] was “lower”. For the same compound, the “Levels of bile acids in plasma vs TAA model group” value ([4]; ω-MCA, DCA, TβMCA/TαMCA, TCA, THDCA/TUDCA, TCDCA, TDCA, treatment group: celastrol 10 mg/kg·d, P<0.05, FIG. 4F) was “significantly lower”.
